Measurements reported in ChEMBL document CHEMBL4706476, “Novel Tetrahydropyrido[4,3-d]pyrimidines as Potent Inhibitors of Chaperone Heat Shock Protein 90” (J Med Chem, 2016).
Values after ≈ are worked out from the molar mass of the structure shown. Active and inactive are the calls of the source. No cut-off for these calls is given here.

Experiments:
Rattus norvegicus [1] = assay: Ex vivo inhibition of HSP90 in Sprague-Dawley rat assessed as up regulation of HSP70 expression in retina at 10 mg/kg, iv administered for 2 consecutive days and measured 24 hrs post last dose by Western blot analysis; type: functional, organism-based
Rattus norvegicus [2] = assay: Ex vivo inhibition of HSP90 in Sprague-Dawley rat assessed as up regulation of HSP70 expression in retina at 10 mg/kg, iv administered for 2 consecutive days and measured 24 hrs post last dose by immunohistochemistry analysis; type: functional, organism-based; details: time 3.0 day
[3] = Ocular toxicity in Sprague-Dawley rat retina damage model assessed as induction of retinal cell death at 10 mg/kg, iv administered for 2 consecutive days by TUNEL staining based analysis; type: organism-based; details: in vivo, 48 h, time 2 day
[4] = Distribution coefficient, logD of compound at pH 7.4; type: physicochemical; details: octanol/water
[5] = target: Heat shock protein HSP 90-alpha (Homo sapiens, UniProt P07900); assay: Displacement of FITC-geldanamycin from N-terminal HSP90alpha (unknown origin) after 30 mins by fluorescence polarization competitive binding assay
[6] = Permeability of the compound at pH 7.4 by PAMPA; type: ADME; details: read-out: permeability
[7] = Intrinsic aqueous solubility of the compound; type: physicochemical
Endoplasmin = Endoplasmin (Homo sapiens, UniProt P14625); assay: Displacement of FITC-geldanamycin from N-terminal GRP94 (unknown origin) after 30 mins by fluorescence polarization competitive binding assay
MDA-MB-231 = assay: Antiproliferative activity against human MDA-MB-231 assessed as reduction in cell viability incubated for 72 hrs by MTT assay; type: functional, cell-based; details: MDA-MB-231, 72 h
MDA-MB-468 = assay: Antiproliferative activity against human MDA-MB-468 assessed as reduction in cell viability incubated for 72 hrs by MTT assay; type: functional, cell-based; details: MDA-MB-468, 72 h
SK-BR-3 = assay: Antiproliferative activity against human SK-BR-3 assessed as reduction in cell viability incubated for 72 hrs by MTT assay; type: functional, cell-based; details: SK-BR-3, 72 h
T47D = assay: Antiproliferative activity against human T47D assessed as reduction in cell viability incubated for 72 hrs by MTT assay; type: functional, cell-based
BT-474 = assay: Antiproliferative activity against human BT-474 assessed as reduction in cell viability incubated for 72 hrs by MTT assay; type: functional, cell-based; details: BT-474, 72 h
U2OS = assay: Antiproliferative activity against human U2OS assessed as reduction in cell viability incubated for 72 hrs by MTT assay; type: functional, cell-based
MKN-28 = assay: Antiproliferative activity against human MKN-28 assessed as reduction in cell viability incubated for 72 hrs by MTT assay; type: functional, cell-based; details: MKN-28, 72 h
A549 = assay: Antiproliferative activity against human A549 assessed as reduction in cell viability incubated for 72 hrs by MTT assay; type: functional, cell-based; details: A549, 72 h
HepG2 = assay: Antiproliferative activity against human HepG2 assessed as reduction in cell viability incubated for 72 hrs by MTT assay; type: functional, cell-based; details: HepG2, 72 h
K562 = assay: Antiproliferative activity against human K562 assessed as reduction in cell viability incubated for 72 hrs by MTT assay; type: functional, cell-based; details: K562, 72 h
MV4-11 = assay: Antiproliferative activity against human MV4-11 assessed as reduction in cell viability incubated for 72 hrs by MTT assay; type: functional, cell-based; details: MV4-11, 72 h
L02 = assay: Cytotoxicity against human L02 cells assessed as reduction in cell viability incubated for 72 hrs by MTT assay; type: cell-based; details: L02, 72 h
[8] = Tmax in rat at 50 mg/kg, po measured upto 24 hrs by LC-MS/MS analysis; type: ADME, organism-based; details: in vivo
[9] = Cmax in rat at 50 mg/kg, po measured upto 24 hrs by LC-MS/MS analysis; type: ADME, organism-based; set-up: route oral, dose 50 mg/kg, time <=24; details: in vivo
[10] = Half life in human liver microsomes at 1 uM preincubated for 5 mins followed by NADPH addition and measured up to 120 mins by LC-MS/MS analysis; type: ADME, Microsome; details: 2 h, time <=125 min
[11] = Intrinsic clearance in human liver microsomes at 1 uM preincubated for 5 mins followed by NADPH addition and measured up to 120 mins by LC-MS/MS analysis; type: ADME, Microsome; details: 2 h, time <=125 min
[12] = Metabolic stability in human liver microsomes assessed as parent compound remaining at 1 uM preincubated for 5 mins followed by NADPH addition and measured up to 120 mins by LC-MS/MS analysis; type: ADME, Microsome; details: 2 h, time <=125 min
CYP1A2 = CYP1A2 (Homo sapiens, UniProt P05177); assay: Inhibition of CYP1A2 in human liver microsomes at 10 uM using phenacetin as substrate preincubated for 5 mins followed by NADPH addition and measured after 20 mins by LC-MS/MS analysis relative to control; type: ADME; details: probe phenacetin, time 25 min
CYP2C9 = CYP2C9 (Homo sapiens, UniProt P11712); assay: Inhibition of CYP2C9 in human liver microsomes at 10 uM using diclofenac as substrate preincubated for 5 mins followed by NADPH addition and measured after 20 mins by LC-MS/MS analysis relative to control; type: ADME; details: probe diclofenac, time 25 min
CYP2C19 = CYP2C19 (Homo sapiens, UniProt P33261); assay: Inhibition of CYP2C19 in human liver microsomes at 10 uM using mephenytoin as substrate preincubated for 5 mins followed by NADPH addition and measured after 20 mins by LC-MS/MS analysis relative to control; details: probe mephenytoin
CYP2D6 = CYP2D6 (Homo sapiens, UniProt P10635); assay: Inhibition of CYP2D6 in human liver microsomes at 10 uM using dextromethorphan as substrate preincubated for 5 mins followed by NADPH addition and measured after 20 mins by LC-MS/MS analysis relative to control; type: ADME; details: probe dextromethorphan, time 25 min
CYP3A4 = CYP3A4 (Homo sapiens, UniProt P08684); assay: Inhibition of CYP3A4 in human liver microsomes at 10 uM using midazolam as substrate preincubated for 5 mins followed by NADPH addition and measured after 20 mins by LC-MS/MS analysis relative to control; type: ADME; details: probe midazolam, time 25 min
[13] = Half-life in rat at 50 mg/kg, po measured upto 24 hrs by LC-MS/MS analysis; type: ADME, organism-based; details: in vivo
[14] = Half-life in rat at 10 mg/kg, iv measured upto 24 hrs by LC-MS/MS analysis; type: ADME, organism-based; details: in vivo
[15] = Apparent clearance during terminal phase in rat at 50 mg/kg, po measured upto 24 hrs by LC-MS/MS analysis; type: ADME, organism-based; details: in vivo, read-out: CLz/F (converted)
[16] = Apparent clearance during terminal phase in rat at 10 mg/kg, iv measured upto 24 hrs by LC-MS/MS analysis; type: ADME, organism-based; details: in vivo
[17] = AUC (0 to t) in rat at 50 mg/kg, po measured upto 24 hrs by LC-MS/MS analysis; type: ADME, organism-based; set-up: route oral, dose 50 mg/kg, time <=24; details: in vivo
[18] = AUC (0 to t) in rat at 10 mg/kg, iv measured upto 24 hrs by LC-MS/MS analysis; type: ADME, organism-based; set-up: route intravenous, dose 10 mg/kg, time <=24; details: in vivo
[19] = Oral bioavailability in rat at 50 mg/kg measured upto 24 hrs by LC-MS/MS analysis; type: ADME, organism-based; details: in vivo
[20] = Ocular toxicity in Sprague-Dawley rat retina damage model assessed as induction of retinal cell death at 20 mg/kg, iv administered for 2 consecutive days by TUNEL staining based analysis; type: organism-based; details: in vivo, 48 h, time 2 day
[21] = Apparent volume of distribution in rat at 50 mg/kg, po measured upto 24 hrs by LC-MS/MS analysis; type: ADME, organism-based; details: in vivo
[22] = Apparent volume of distribution in rat at 10 mg/kg, iv measured upto 24 hrs by LC-MS/MS analysis; type: ADME, organism-based; details: in vivo, read-out: Vz
HCT-116 = assay: cells; details: Homo sapiens, HCT-116, 72 h
Description: Antiproliferative activity against human HCT-116 cells assessed as reduction in cell viability incubated for 72 hrs by MTT assay

MCF7 = assay: cells; details: Homo sapiens, MCF7, 72 h
[23] = Drug distribution in blood of mouse xenografted with human HCT-116 cells at 60 mg/kg, iv by LC-MS/MS analysis; details: in vivo
[24] = Drug distribution in liver of mouse xenografted with human HCT-116 cells at 60 mg/kg, iv by LC-MS/MS analysis; details: in vivo
[25] = Drug distribution in spleen of mouse xenografted with human HCT-116 cells at 60 mg/kg, iv by LC-MS/MS analysis; details: in vivo
[26] = Drug concentration in tumor of mouse xenografted with human HCT-116 cells at 60 mg/kg, iv measured at 48 hrs by LC-MS/MS analysis; details: in vivo

Chain of CYP1A2 (P05177 whole entry): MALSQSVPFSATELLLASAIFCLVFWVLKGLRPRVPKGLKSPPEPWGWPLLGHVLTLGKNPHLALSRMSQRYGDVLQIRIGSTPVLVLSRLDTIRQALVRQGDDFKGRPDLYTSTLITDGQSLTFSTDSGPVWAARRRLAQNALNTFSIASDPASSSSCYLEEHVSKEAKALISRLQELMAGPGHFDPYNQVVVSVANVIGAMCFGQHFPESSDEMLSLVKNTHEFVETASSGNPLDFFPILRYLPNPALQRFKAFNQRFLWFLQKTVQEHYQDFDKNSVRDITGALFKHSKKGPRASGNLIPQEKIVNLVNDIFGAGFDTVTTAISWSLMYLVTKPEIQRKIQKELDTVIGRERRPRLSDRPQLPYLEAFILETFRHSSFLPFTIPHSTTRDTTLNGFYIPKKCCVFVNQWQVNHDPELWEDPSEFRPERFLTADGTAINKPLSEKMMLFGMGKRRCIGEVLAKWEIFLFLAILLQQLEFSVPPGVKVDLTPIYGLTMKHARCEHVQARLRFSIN
Chain of CYP2C9 (P11712 whole entry): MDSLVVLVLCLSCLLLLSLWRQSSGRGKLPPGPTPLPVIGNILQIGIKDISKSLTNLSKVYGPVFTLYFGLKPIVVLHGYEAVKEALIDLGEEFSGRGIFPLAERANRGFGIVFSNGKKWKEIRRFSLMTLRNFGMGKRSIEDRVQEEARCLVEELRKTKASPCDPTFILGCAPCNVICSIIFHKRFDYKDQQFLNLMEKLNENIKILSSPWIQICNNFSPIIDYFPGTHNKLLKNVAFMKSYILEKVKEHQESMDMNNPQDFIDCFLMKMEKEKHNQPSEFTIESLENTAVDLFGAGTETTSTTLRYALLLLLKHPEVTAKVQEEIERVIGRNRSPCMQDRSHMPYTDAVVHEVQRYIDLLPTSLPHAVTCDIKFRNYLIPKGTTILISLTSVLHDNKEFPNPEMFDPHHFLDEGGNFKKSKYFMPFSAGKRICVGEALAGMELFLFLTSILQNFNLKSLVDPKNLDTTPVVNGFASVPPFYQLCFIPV
Chain of CYP2D6 (P10635 whole entry): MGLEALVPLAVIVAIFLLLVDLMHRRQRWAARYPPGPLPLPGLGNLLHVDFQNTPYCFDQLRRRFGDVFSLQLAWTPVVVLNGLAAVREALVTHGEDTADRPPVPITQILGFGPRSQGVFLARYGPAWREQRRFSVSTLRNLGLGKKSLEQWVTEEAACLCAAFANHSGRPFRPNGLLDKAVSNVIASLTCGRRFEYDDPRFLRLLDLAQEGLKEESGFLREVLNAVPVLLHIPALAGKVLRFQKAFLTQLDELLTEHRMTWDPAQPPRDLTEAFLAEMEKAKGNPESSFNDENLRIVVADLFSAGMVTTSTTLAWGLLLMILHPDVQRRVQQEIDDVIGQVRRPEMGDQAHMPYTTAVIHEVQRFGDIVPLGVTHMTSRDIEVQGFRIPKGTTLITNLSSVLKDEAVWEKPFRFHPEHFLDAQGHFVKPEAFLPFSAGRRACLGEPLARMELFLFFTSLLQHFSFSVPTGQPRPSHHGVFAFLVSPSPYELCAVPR
Chain of Endoplasmin (P14625 whole entry): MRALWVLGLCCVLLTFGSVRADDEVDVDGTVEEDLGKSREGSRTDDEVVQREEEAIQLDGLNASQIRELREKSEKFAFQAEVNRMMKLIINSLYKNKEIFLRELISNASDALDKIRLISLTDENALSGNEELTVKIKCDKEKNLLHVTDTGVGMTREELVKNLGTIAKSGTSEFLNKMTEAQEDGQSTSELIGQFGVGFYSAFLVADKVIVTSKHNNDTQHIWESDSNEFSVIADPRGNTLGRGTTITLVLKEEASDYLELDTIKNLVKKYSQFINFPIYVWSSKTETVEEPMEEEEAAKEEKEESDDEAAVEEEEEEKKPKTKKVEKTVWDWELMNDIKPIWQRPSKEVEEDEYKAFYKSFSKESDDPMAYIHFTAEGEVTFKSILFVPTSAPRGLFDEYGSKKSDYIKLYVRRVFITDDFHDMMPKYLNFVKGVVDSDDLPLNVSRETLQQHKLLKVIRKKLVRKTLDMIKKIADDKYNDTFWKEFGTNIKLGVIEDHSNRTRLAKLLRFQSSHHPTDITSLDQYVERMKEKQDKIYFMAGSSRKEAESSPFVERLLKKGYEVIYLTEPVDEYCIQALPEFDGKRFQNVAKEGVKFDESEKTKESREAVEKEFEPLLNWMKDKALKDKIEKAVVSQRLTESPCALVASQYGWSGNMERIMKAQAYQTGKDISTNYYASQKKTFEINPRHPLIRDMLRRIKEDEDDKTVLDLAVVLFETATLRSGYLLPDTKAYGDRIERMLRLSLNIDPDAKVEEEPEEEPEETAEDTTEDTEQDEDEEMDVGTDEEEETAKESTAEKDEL
Chain of CYP2C19 (P33261 whole entry): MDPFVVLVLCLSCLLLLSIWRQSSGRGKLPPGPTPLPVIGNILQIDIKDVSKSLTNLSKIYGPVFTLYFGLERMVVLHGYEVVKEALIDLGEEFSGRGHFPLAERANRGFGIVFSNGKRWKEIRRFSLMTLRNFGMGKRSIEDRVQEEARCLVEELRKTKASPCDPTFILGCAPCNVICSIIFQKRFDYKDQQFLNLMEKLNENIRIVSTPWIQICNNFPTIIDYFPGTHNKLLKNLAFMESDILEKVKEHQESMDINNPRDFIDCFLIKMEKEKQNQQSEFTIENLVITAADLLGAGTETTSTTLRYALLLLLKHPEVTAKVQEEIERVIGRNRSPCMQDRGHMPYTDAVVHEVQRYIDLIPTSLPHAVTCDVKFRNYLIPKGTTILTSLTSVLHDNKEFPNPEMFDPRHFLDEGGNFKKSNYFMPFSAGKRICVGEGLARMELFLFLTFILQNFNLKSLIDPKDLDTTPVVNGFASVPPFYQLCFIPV
Chain of CYP3A4 (P08684 whole entry): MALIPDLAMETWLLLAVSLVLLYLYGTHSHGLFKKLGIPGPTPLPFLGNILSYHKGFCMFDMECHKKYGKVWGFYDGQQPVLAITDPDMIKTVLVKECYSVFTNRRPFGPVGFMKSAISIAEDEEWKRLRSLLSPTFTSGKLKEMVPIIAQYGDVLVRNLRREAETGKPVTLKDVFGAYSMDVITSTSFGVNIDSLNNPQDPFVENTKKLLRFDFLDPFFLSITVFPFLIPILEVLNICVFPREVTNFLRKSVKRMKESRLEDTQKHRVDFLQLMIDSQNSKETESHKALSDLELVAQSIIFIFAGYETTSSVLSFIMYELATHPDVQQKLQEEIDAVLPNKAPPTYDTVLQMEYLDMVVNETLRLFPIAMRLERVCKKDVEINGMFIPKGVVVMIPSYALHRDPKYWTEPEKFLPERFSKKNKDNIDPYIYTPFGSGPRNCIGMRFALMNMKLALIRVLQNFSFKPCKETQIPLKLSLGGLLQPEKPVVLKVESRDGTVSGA

**Q.** Which inhibition (Rattus norvegicus [1]) does the source give for `CCNC(=O)c1noc(-c2cc(C(C)C)c(O)cc2O)c1-c1ccc(CN2CCOCC2)cc1` [LUMINESPIB] here?
**A.** The inhibition was “Active”.

**Q.** What about the inhibition (Rattus norvegicus [2]) of the same compound?
**A.** The inhibition was “Active”.

**Q.** What about the Activity [3] of the same compound?
**A.** Its Activity is “Toxic”.

**Q.** What does the source list for `CCNc1nc(OCCOC)nc2c1CN(C(=O)c1cc(C(C)C)c(O)cc1O)CC2`?
**A.** logD [4]: 2.32; IC50 [5]: 28 nM; Papp [6]: 71.5 ×10⁻⁶ cm/s; solubility [7]: 192 µg/mL (≈ 447 µM); IC50 (Endoplasmin): 729 nM; IC50 (MDA-MB-231): 119 nM; IC50 (MDA-MB-468): 135 nM; IC50 (SK-BR-3): 243 nM; IC50 (T47D): 195 nM; IC50 (BT-474): 95 nM; IC50 (U2OS): 52 nM; IC50 (MKN-28): 434 nM; IC50 (A549): 194 nM; IC50 (HepG2): 153 nM; IC50 (K562): 119 nM; IC50 (MV4-11): 27 nM; IC50 (L02): 34000 nM; Tmax [8]: 0.5 h; Cmax [9]: 72.6 ng/mL; t1/2 [10]: 3.53 h; CLint [11]: 4.45 mL/min/kg; Stabilty [12]: 90.4%; inhibition at 20 min, 10 µM (CYP1A2): 8%; inhibition at 20 min, 10 µM (CYP2C9): 36%; inhibition at 20 min, 10 µM (CYP2C19): 21%; inhibition at 20 min, 10 µM (CYP2D6): 48%; inhibition at 20 min, 10 µM (CYP3A4): 22%; half-life [13]: 9.4 h; half-life [14]: 3.95 h; CL/F [15]: 2060 mL/min/kg; CLz/F [16]: 87.5 mL/min/kg; AUC(0-t) at 24 h [17]: 409 ng·h/mL; AUC(0-t) at 24 h [18]: 1930 ng·h/mL; bioavailability [19]: 4.23%; Activity [20]: Non-Toxic; Vz [21]: 1620.19 L/kg; Vd [22]: 29.6 L/kg; IC50 (HCT-116): 140 nM; IC50 (MCF7): 100 nM; Drug uptake [23]: Active; Drug uptake [24]: Active; Drug uptake [25]: Active; Ct [26]: > 3 uM/L
